The compounds below were run against T1, MRSA PK (Staphylococcus aureus, UniProt Q6GG09) (assay: MRSA PK activity, continuous LDH-coupled assay). Settings: not given.
T1 construct: His tag (pET-28a(+) vector) (N); made in house; host or cells: E. coli BL-21 (DE3)
Assay type: biochemical, S. aureus (MRSA strain Sanger 252)
Source text: Genomic DNA of MRSA strain Sanger 252 extracted using DNeasy Tissue Kit™ (Qiagen™) was used as a template to generate the His-tagged MRSA PK. Human cDNA from MCF-7 breast cancer cell line (courtesy of Dr. J Wong, BC Cancer Research Center (Vancouver, Canada) was used as a template to generate the full-length human M2 PK enzyme. The following primer sets were used creating appropriate restriction sites (NdeI and XhoI sites underlined): For cloning of MRSA PK: M27F 5′-[…]-3′ and M27R 5′-[…]-3′, for cloning of human M2 PK isoform: hM2F 5′-[…]-3′ and hM2R 5′-[…]-3′. The resulting PCR fragments for each construct were cloned into the NdeI and XhoI unique sites of the bacterial expression vector pET-28a (+) (Novagen™). […] The sequence and the correct reading frame of all constructs were verified by sequencing. Human M1, R and L PK constructs in pET-28-a(+) vectors (courtesy of Dr. L. Cantley, Harvard Medical, School (Boston, USA)) were used to generate relevant recombinant His-tagged human PK isoforms.
MRSA and human constructs in pET-28a(+) were used to express relevant recombinant PK proteins in E. coli BL-21 (DE3). The proteins were expressed and purified using Ni-NTA agarose (Qiagen™) according to the manufacturer's protocol. Briefly, cells were grown to an absorbance of 0.4-0.5 at 600 nm in 2×YT medium, then induced with 0.1 mM IPTG for 3 h at 20° C. Cells were lysed by sonication on ice (3×10-s bursts with a 30-s recovery between bursts) in lysis buffer (0.2 mg/ml lysozyme, 50 mM Tris pH 7.5, 10 mM MgCl2, 200 mM NaCl, 100 mM KCl, 10% glycerol, 10 mM imidazole, 0.5% NP-40 and 1 mM DTT containing Complete™ protease inhibitor). Cell lysates were cleared by centrifugation (18,000×g in a Beckman™ JA-20 rotor) for 20 min at 4° C. and PK isoforms were purified by batch binding to Ni-NTA resin. The resins were then packed in columns (1×2 cm) and washed with 400 column volumes lysis buffer containing 30 mM imidazole. His-tagged PK isoforms were eluted with the same buffer containing 300 mM imidazole. The proteins were dialyzed overnight at 4° C. against 2000 volumes of ice-cold 30 mM Tris pH 7.5, 25 mM KCl, 5 mM MgCl2, 10% glycerol and 1 mM DTT to remove imidazole. All purification steps were done at 4° C.; enzymes were flash-frozen and stored at −70° C. […] Purity and physical integrity of proteins were assessed using SDS-polyacrylamide gel electrophoresis (SDS-PAGE) followed by coomassie blue staining. Protein concentration was estimated by Bradford assay (Bio-Rad Protein Assay™) using bovine serum albumin as a standard.
Candidate MRSA PK inhibitors were assayed for their ability to inhibit enzymatic activities of MRSA and human PKs. PK activity was determined using a continuous assay coupled to lactate dehydrogenase (LDH) in which the change in absorbance at 340 nm owing to oxidation of NADH was measured using a Benchmark Plus™ microplate spectrophotometer (Bio-Rad Laboratories, Hercules, Calif.). […] Reactions were initiated by the addition of 15 nM of one of the PK enzymes. PK activity proportional to the rate of change at 340 nm was expressed as specific activity (μmol/min/mg), which is defined as the amount of PK that catalyzes the formation of one micromole of either product per minute. Inhibitors were dissolved in DMSO with the final concentration of the solvent never exceeding 1% of the assay volume. IC50 values were calculated by curve fitting on a four-parameter dose-response model with variable slope using Graphpad Prism 5.0™ (GraphPad™ Software Inc., La Jolla, Calif.). […] Reactions were performed at 30° C. for up to 5 min. All values determined represent at least two measurements, in triplicate (Tables 1-6) or duplicate unless mentioned otherwise.

T1 sequence (Q6GG09 whole entry): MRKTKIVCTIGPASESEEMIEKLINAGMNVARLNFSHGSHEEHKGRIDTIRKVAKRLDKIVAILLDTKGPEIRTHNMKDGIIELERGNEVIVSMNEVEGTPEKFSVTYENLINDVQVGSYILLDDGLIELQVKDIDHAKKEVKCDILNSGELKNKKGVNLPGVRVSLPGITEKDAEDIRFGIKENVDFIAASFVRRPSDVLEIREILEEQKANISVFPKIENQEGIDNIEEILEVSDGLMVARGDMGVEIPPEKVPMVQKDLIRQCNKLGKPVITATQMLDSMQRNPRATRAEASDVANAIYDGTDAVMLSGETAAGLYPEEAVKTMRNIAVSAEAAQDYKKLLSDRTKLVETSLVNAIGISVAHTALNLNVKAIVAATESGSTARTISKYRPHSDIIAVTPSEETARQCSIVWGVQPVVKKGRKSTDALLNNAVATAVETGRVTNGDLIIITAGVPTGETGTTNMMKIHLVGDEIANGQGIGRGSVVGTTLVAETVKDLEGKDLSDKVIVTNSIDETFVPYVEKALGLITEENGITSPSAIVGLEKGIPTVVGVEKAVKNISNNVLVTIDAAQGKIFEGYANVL

Compound	IC50 [nM]
Cc1ncc(/C=C/c2cc3ccc(Br)cc3[nH]2)s1 [Compound 115, (E)-5-(2-(6-Bromo-1H-indol-2-yl)vinyl)-2-methylthiazole]	> 1000
Brc1ccc2cc(/C=C/c3ccc(-n4ccnc4)cc3)[nH]c2c1 [Compound 104, (E)-2-(4-(1H-Imidazol-1-yl)styryl)-6-bromo-1H-indole]	> 1000
O=C(c1c(C#Cc2ncccn2)[nH]c2cc(Br)ccc12)C(F)(F)F [Compound 169, 1-(6-Bromo-2-(pyrimidin-2-ylethynyl)-1H-indol-3-yl)-2,2,2-trifluoroethanone]	> 100000
Cc1nc(/C=C/c2cc3ccc(Br)cc3[nH]2)co1 [Compound 112, (E)-4-(2-(6-Bromo-1H-indol-2-yl)vinyl)-2-methyloxazole]	> 100000
CC(=O)c1c(/C=C/c2ccc(Cl)cc2)[nH]c2cc(Br)ccc12 [Compound 122, (E)-1-(6-Bromo-2-(4-chlorostyryl)-1H-indol-3-yl)ethanone]	100 to 1000
Brc1ccc2cc(C#Cc3ccccn3)[nH]c2c1 [Compound 140, 6-Bromo-2-(pyridin-2-ylethynyl)-1H-indole]	> 1000
Cc1csc(/C=C/c2cc3ccc(Br)cc3[nH]2)n1 [Compound 113, (E)-2-(2-(6-Bromo-1H-indol-2-yl)vinyl)-4-methylthiazole]	> 1000
FC(F)(F)C1(c2ccc(-c3[nH]c4cc(Br)ccc4c3Cl)cc2)N=N1 [Compound 92, 6-bromo-3-chloro-2-(4-(3-(trifluoromethyl)-3H-diazirin-3-yl)phenyl)-1H-indole]	110
COc1ccc(C#Cc2cc3ccc(Br)cc3[nH]2)cn1 [Compound 144, 6-Bromo-2-((6-methoxypyridin-3-yl)ethynyl)-1H-indole]	> 1000
Cc1ccc(/C=C/c2cc3ccc(Br)cc3[nH]2)o1 [Compound 114, (E)-6-Bromo-2-(2-(5-methylfuran-2-yl)vinyl)-1H-indole]	> 1000
Cn1c(-c2cc3ccccc3s2)nc2ccc(Br)cc21 [Compound 155, 2-(Benzo[b]thiophen-2-yl)-6-bromo-1-methyl-1H-benzo[d]imidazole]	100 to 1000
O=C(c1c(/C=C/c2cn3ccccc3n2)[nH]c2cc(Br)ccc12)C(F)(F)F [Compound 176, (E)-1-(6-Bromo-2-(2-(imidazo[1,2-a]pyridin-2-yl)vinyl)-1H-indol-3-yl)-2,2,2-trifluoroethanone]	> 1000
Cn1c(-c2cc3ccccc3s2)nc2cc(Br)ccc21 [Compound 156, 2-(Benzo[b]thiophen-2-yl)-5-bromo-1-methyl-1H-benzo[d]imidazole]	> 1000
Cc1ccc(/C=C/c2cc3ccc(Br)cc3[nH]2)s1 [Compound 116, (E)-6-Bromo-2-(2-(5-methylthiophen-2-yl)vinyl)-1H-indole]	> 1000
COC(=O)c1c(C#Cc2cc3cc(Cl)ccc3[nH]2)[nH]c2cc(Br)ccc12 [Compound 145, Methyl 6-bromo-2-((5-chloro-1H-indol-2-yl)ethynyl)-1H-indole-3-carboxylate]	> 1000
COc1ccc(/C=C/c2cc3ccc(Br)cc3[nH]2)cn1 [Compound 111, (E)-6-Bromo-2-(2-(6-methoxypyridin-3-yl)vinyl)-1H-indole]	> 1000
COC(=O)c1c(C#Cc2ncc(Cl)cn2)[nH]c2cc(Br)ccc12 [Compound 143, Methyl 6-bromo-2-((5-chloropyrimidin-2-yl)ethynyl)-1H-indole-3-carboxylate]	< 50
COc1ccc(/C=C/c2[nH]c3cc(Br)ccc3c2C(=O)C(F)(F)F)nc1 [Compound 172, (E)-1-(6-Bromo-2-(2-(5-methoxypyridin-2-yl)vinyl)-1H-indol-3-yl)-2,2,2-trifluoroethanone]	> 1000
[N-]=[N+]=Nc1ccc(-c2cc3ccc(Br)cc3[nH]2)cc1 [Compound 93, 2-(4-azidophenyl)-6-bromo-1H-indole]	40.5
Brc1ccc(CCc2cc3ccc(Br)cc3[nH]2)cc1 [Compound 37b, 6-bromo-2-(4-bromophenethyl)-1H-indole]	187
FC(F)(F)C1(c2ccc(-c3cc4ccc(Br)cc4[nH]3)cc2)N=N1 [Compound 94, 6-bromo-2-(4-(3-(trifluoromethyl)-3H-diazirin-3-yl)phenyl)-1H-indole]	78.3
COc1ccc(/C=C/c2[nH]c3cc(Br)ccc3c2C(=O)O)nc1 [Compound 151, (E)-6-Bromo-2-(2-(5-methoxypyridin-2-yl)vinyl)-1H-indole-3-carboxylic acid]	> 1000
Cc1csc(/C=C/c2cc3ccc(Br)cc3[nH]2)c1 [Compound 117, (E)-6-Bromo-2-(2-(4-methylthiophen-2-yl)vinyl)-1H-indole]	> 1000
[N-]=[N+]=Nc1ccc2cc(-c3cc4ccc(Br)cc4[nH]3)[nH]c2c1 [Compound 88, 6-azido-6′-bromo-1H,1′H-2,2′-biindole]	22.6
COC(=O)c1c(-c2cc3ccc(Br)cc3[nH]2)[nH]c2ccccc12 [Compound 90, methyl 6′-bromo-1H,1′H-[2,2′-biindole]-3-carboxylate]	2.4

Same assay, conditions: read-out: % inhibition (IC50)

Compound	inhibition at 4 µM [%]
Brc1ccc2cc(CCc3ccccc3)[nH]c2c1 [Compound 37a, 6-bromo-2-phenethyl-1H-indole]	56

Same assay, conditions: read-out: % inhibition at the highest concentration tested (IC50)

Compound	inhibition at 10 µM [%]
Brc1ccc2[nH]c(-c3ccc(-c4cc5ccc(Br)cc5[nH]4)s3)cc2c1 [Compound 47, 6-Bromo-2-(5-(5-bromo-1H-indol-2-yl)thiophen-2-yl)-1H-indole]	52
O=C(Nc1ccc(Br)cc1)c1cc2ccccc2[nH]1 [Compound 52]	67
FC(F)(F)C1(c2ccc(-c3cc4ccc(Br)cc4[nH]3)cc2)NN1 [Compound 89, 6-Bromo-2-(4-(3-(trifluoromethyl)diaziridin-3-yl)phenyl)-1H-indole]	84
Cn1c(C#Cc2cc3ccc(Br)cc3n2C)cc2ccc(Br)cc21 [Compound 26b, 1,2-bis(6-bromo-1-methyl-1H-indol-2-yl)ethyne]	27
Brc1ccc2[nH]c(-c3cc4ccccc4[nH]3)cc2c1 [Compound 10h, 5-Bromo-1H,1′H-2,2′-biindole]	36

What follows are compounds tested on S. aureus ATCC 29213 (assay: In vitro susceptibility, broth microdilution MIC). Settings: Staphylococcus aureus, ATCC29213, Table 8; tested at least in duplicate, differing values all given; read-out: MIC.
Assay type: cell-based, Staphylococcus aureus
Experimental: The antimicrobial activities of PK inhibitor candidates were determined using the 96-well microtiter standard 2-fold serial broth microdilution method as described by CLSI (formerly NCCLS) with the various gram-positive and gram-negative bacteria species mentioned above. Bacteria from a single colony were grown, overnight in either BHI Broth (VRE), mueller hinton broth (S. aureus 29213; MRSA USA400) or L-broth (E. coli, P. aeruginosa, S. typhimuriu, K. Pneumonia and A. baumannii). […] Culture plates were incubated for 18-24 h at 37° C., and optical density at 600 nm (OD600) was measured using a Benchmark Plus™ microplate spectrophotometer (Bio-Rad™). The absorbance control values for the series containing CAMHB and inhibitor were subtracted as background from the corresponding infected wells. The MIC was defined as the lowest concentration of test compound leading to complete inhibition of cell growth in relationship to compound-free control wells as determined by optical density. […] All assays were run in triplicate (Tables 1-6) or duplicate. Experiments were replicated at least twice to verify reproducibility using the above conditions.

Compound	MIC [µg/mL]
Brc1ccc2cc(/C=C/c3ccc(-n4ccnc4)cc3)[nH]c2c1 [Compound 104, (E)-2-(4-(1H-Imidazol-1-yl)styryl)-6-bromo-1H-indole]	> 64
O=C(c1c(C#Cc2ncccn2)[nH]c2cc(Br)ccc12)C(F)(F)F [Compound 169, 1-(6-Bromo-2-(pyrimidin-2-ylethynyl)-1H-indol-3-yl)-2,2,2-trifluoroethanone]	> 64

Same assay, conditions: Staphylococcus aureus, ATCC29213, Tables 1-6 and text; minimum concentration to give >98% inhibition of growth; read-out: MIC

Compound	MIC [µg/mL]
Brc1ccc2[nH]c(-c3ccc(-c4cc5ccc(Br)cc5[nH]4)s3)cc2c1 [Compound 47, 6-Bromo-2-(5-(5-bromo-1H-indol-2-yl)thiophen-2-yl)-1H-indole]	> 64
O=C(Nc1ccc(Br)cc1)c1cc2ccccc2[nH]1 [Compound 52]	> 32

Source: patent US20170216252A1, “ANTI-BACTERIAL PYRUVATE KINASE MODULATOR COMPOUNDS, COMPOSITIONS, USES AND METHODS” (SIMON FRASER UNIVERSITY, priority 2014, published 2017)
